We go through 1 compound from patent US20080233558A1, “Inhibitors of viral entry screening method” (priority 2005, published 2008).

Series [1] has as its system MLV(VSV-G Env) pseudotype particles. The class given is cell-based.
In series [2] the test system is MLV(VSV-G Env) particles that transduce a gfp-gene. The class given is cell-based.
Series [3] has as its system MLV(VSV-G Env) pseudotype particles. The class given is cell-based. The source holds these as a separate data set.
Series [4] relates to indicator cells (HEK293T expressing tPA-HA). The settings on record: increasing inhibitor concentrations up to 1 mM; due to cytotoxic effects.

Turning to `Cc1cn([C@H]2C[C@H](N=[N+]=[N-])[C@@H](CO)O2)c(=O)[nH]c1=O` [AZT], in series [1], the “fluorescence readout signal with increasing concentrations of the inhibitor” value is “increased signal intensities” and the “readout signal at concentrations higher than the optimal concentration” value is on record as “decreased readout signals”. The “gfp fluorescence signal at the highest inhibitor concentration” value in series [2] is recorded as “lowest fluorescence signal”. The “cell populations after α-HA antibody staining” value in series [3] is given as “just one (fluorescence positive) population”. Further, the “fluorescence signal of indicator cells in absence of any particles” value in series [4] was “decreasing fluorescence intensities”.
